# Reference: ChEMBL document CHEMBL1201862, “PubChem BioAssay data set” (2004)
#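 Compound exposure: 48 hours, 5 concentrations, 96-well plates. GI50 marks 50% less growth.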 Calls of active or inactive are those of the source. No stated cut-off is given here; in the data, active = GI50 up to about 1.1 µM and inactive = higher.
# Tests used:
# Experiment in all cases: NCI tumour cell line growth inhibition, 48 h
# A549 = tested on: A549
# CCRF-CEM = tested on: CCRF-CEM
# EKVX = tested on: EKVX
# HL-60 = tested on: HL-60
# HOP-62 = tested on: HOP-62
# HT-29 = tested on: HT-29
# Hs-578T = tested on: Hs-578T
# IGROV-1 = tested on: IGROV-1
# M14 = tested on: M14
# MDA-MB-435 = tested on: MDA-MB-435
# MOLT-4 = tested on: MOLT-4
# Malme-3M = tested on: Malme-3M
# NCI-H226 = tested on: NCI-H226
# NCI-H522 = tested on: NCI-H522
# SK-MEL-2 = tested on: SK-MEL-2
# SNB-75 = tested on: SNB-75
# T47D = tested on: T47D
# UACC-257 = tested on: UACC-257
# RXF 393 = tested on: RXF 393
# A498 = tested on: A498
SMILES,GI50 (A549),GI50 (CCRF-CEM),GI50 (EKVX),GI50 (HL-60),GI50 (HOP-62),GI50 (HT-29),GI50 (Hs-578T),GI50 (IGROV-1),GI50 (M14),GI50 (MDA-MB-435),GI50 (MOLT-4),GI50 (Malme-3M),GI50 (NCI-H226),GI50 (NCI-H522),GI50 (SK-MEL-2),GI50 (SNB-75),GI50 (T47D),GI50 (UACC-257),GI50 (RXF 393),GI50 (A498)
c1ccc(/N=C(/Nc2ccccc2)N2CCCCC2)cc1,> 100 µM (inactive),> 100 µM (inactive),> 100 µM (inactive),24.7 µM (inactive),> 100 µM (inactive),39.6 µM (inactive),18.7 µM (inactive),93.5 µM (inactive),22.3 µM (inactive),41.6 µM (inactive),51.5 µM (inactive),50.2 µM (inactive),> 100 µM (inactive),67.3 µM (inactive),> 100 µM (inactive),16.7 µM (inactive),> 100 µM (inactive),21.6 µM (inactive),–,–
O=C(/C=C(\Nc1ccccc1O)c1ccc(Br)cc1)C(Cl)(Cl)Cl,2.75 µM (inactive),15.4 µM (inactive),3.21 µM (inactive),2.36 µM (inactive),13.6 µM (inactive),6.43 µM (inactive),3.1 µM (inactive),10.3 µM (inactive),15.5 µM (inactive),8.89 µM (inactive),13.9 µM (inactive),15.2 µM (inactive),12.1 µM (inactive),14.9 µM (inactive),8.04 µM (inactive),13.7 µM (inactive),3.95 µM (inactive),7.26 µM (inactive),5.51 µM (inactive),–
CC1=C(C(=O)NCC(C)O)CC(C(=O)NCC(C)O)=C(C)N1 (stereo unspecified),> 100 µM (inactive),> 100 µM (inactive),> 100 µM (inactive),> 100 µM (inactive),> 100 µM (inactive),> 100 µM (inactive),> 100 µM (inactive),> 100 µM (inactive),> 100 µM (inactive),> 100 µM (inactive),> 100 µM (inactive),–,89.7 µM (inactive),> 100 µM (inactive),> 100 µM (inactive),72.9 µM (inactive),> 100 µM (inactive),> 100 µM (inactive),> 100 µM (inactive),–
C[C@]12CC[C@H]3[C@@H](CCC4=C/C(=N/OCCN5CCCCC5)CC[C@@]43C)[C@@H]1CC[C@@H]2O,14.4 µM (inactive),9.31 µM (inactive),27.3 µM (inactive),2.99 µM (inactive),14.1 µM (inactive),1.37 µM (inactive),–,27.4 µM (inactive),8.02 µM (inactive),7.66 µM (inactive),5.81 µM (inactive),15 µM (inactive),4.29 µM (inactive),12.2 µM (inactive),14.6 µM (inactive),7.26 µM (inactive),28 µM (inactive),17.2 µM (inactive),11.8 µM (inactive),–
O=[N+]([O-])c1ccc(Cl)cc1N/N=C/c1cccs1,> 100 µM (inactive),> 100 µM (inactive),> 100 µM (inactive),> 100 µM (inactive),> 100 µM (inactive),> 100 µM (inactive),72.4 µM (inactive),> 100 µM (inactive),> 100 µM (inactive),> 100 µM (inactive),> 100 µM (inactive),–,38.5 µM (inactive),> 100 µM (inactive),–,> 100 µM (inactive),26.4 µM (inactive),> 100 µM (inactive),> 100 µM (inactive),–
O=C1Nc2ccccc2/C1=N/Nc1nc(-c2ccccc2)cs1,75.3 µM (inactive),–,21.4 µM (inactive),2.45 µM (inactive),18.2 µM (inactive),27.7 µM (inactive),–,21.1 µM (inactive),23.1 µM (inactive),> 100 µM (inactive),45.2 µM (inactive),–,> 100 µM (inactive),–,84.1 µM (inactive),8.63 µM (inactive),26.9 µM (inactive),56.2 µM (inactive),–,–
CC1(C)OCN(c2ccc(S(N)(=O)=O)cc2)Cn2c1nc1ccccc12,> 100 µM (inactive),> 100 µM (inactive),> 100 µM (inactive),> 100 µM (inactive),> 100 µM (inactive),> 100 µM (inactive),–,> 100 µM (inactive),> 100 µM (inactive),–,> 100 µM (inactive),> 100 µM (inactive),> 100 µM (inactive),> 100 µM (inactive),> 100 µM (inactive),> 100 µM (inactive),–,> 100 µM (inactive),> 100 µM (inactive),> 100 µM (inactive)
CN(C)c1ccc(C(=C(c2ccc(N(C)C)cc2)c2ccc(N(C)C)cc2)c2ccc(N(C)C)cc2)cc1,16.3 µM (inactive),16.6 µM (inactive),18.7 µM (inactive),5.36 µM (inactive),39.5 µM (inactive),13.8 µM (inactive),–,17.3 µM (inactive),6.62 µM (inactive),–,14.6 µM (inactive),15 µM (inactive),19.8 µM (inactive),0.301 µM (active),12.1 µM (inactive),13.5 µM (inactive),–,17.3 µM (inactive),11.7 µM (inactive),18.6 µM (inactive)
N=C(N)NS(=O)(=O)c1ccc(NC(=O)c2cccc3c(NNc4ccc(S(=O)(=O)N=C(N)N)cc4)c4ccccc4nc23)cc1,> 100 µM (inactive),19.3 µM (inactive),30.8 µM (inactive),35.5 µM (inactive),> 100 µM (inactive),31.1 µM (inactive),54.7 µM (inactive),51.5 µM (inactive),> 100 µM (inactive),42.3 µM (inactive),30.8 µM (inactive),38.2 µM (inactive),91.8 µM (inactive),25.6 µM (inactive),16.9 µM (inactive),> 100 µM (inactive),22.6 µM (inactive),> 100 µM (inactive),> 100 µM (inactive),–
C[C@@]12C(=O)OC(=O)[C@]1(C)[C@H]1CC[C@@H]2O1 [CANTHARIDIN],0.918 µM (active),1.19 µM (inactive),0.45 µM (active),1.63 µM (inactive),2.44 µM (inactive),1.66 µM (inactive),–,2.16 µM (inactive),1.7 µM (inactive),1.89 µM (inactive),9.79 µM (inactive),1.34 µM (inactive),1.06 µM (active),0.935 µM (active),1.45 µM (inactive),0.472 µM (active),1.68 µM (inactive),2.65 µM (inactive),0.484 µM (active),1.12 µM (inactive)
Oc1ccc2c(O)cc(-c3ccccc3)nc2c1,23.1 µM (inactive),18.2 µM (inactive),35.9 µM (inactive),21.5 µM (inactive),28.2 µM (inactive),23.3 µM (inactive),–,29 µM (inactive),19.7 µM (inactive),–,21.1 µM (inactive),34.4 µM (inactive),65.3 µM (inactive),27 µM (inactive),31.7 µM (inactive),22.1 µM (inactive),–,21.7 µM (inactive),6.22 µM (inactive),32.1 µM (inactive)
O=C1NI(C#Cc2ccccc2)c2ccccc21,59 µM (inactive),40.6 µM (inactive),–,> 100 µM (inactive),> 100 µM (inactive),> 100 µM (inactive),> 100 µM (inactive),> 100 µM (inactive),> 100 µM (inactive),> 100 µM (inactive),65.3 µM (inactive),> 100 µM (inactive),> 100 µM (inactive),–,> 100 µM (inactive),–,53 µM (inactive),> 100 µM (inactive),–,> 100 µM (inactive)
Cc1cc2c(c3oc(C4(C)OC4C4OC4C)cc(=O)c13)C(=O)c1c(O)c(C3CC(C)(N(C)C)C(O)C(C)O3)cc(C3CC(N(C)C)C(O)C(C)O3)c1C2=O (stereo unspecified),0.0025 µM (active),0.0025 µM (active),–,0.0025 µM (active),5.79e-05 µM (active),0.000175 µM (active),0.000349 µM (active),0.000951 µM (active),8.26e-05 µM (active),9.23e-05 µM (active),0.0025 µM (active),–,–,0.00275 µM (active),–,–,0.00018 µM (active),0.000116 µM (active),0.000104 µM (active),–
CCOP(=O)(OCC)C(C(=O)OC)C(=O)C(=O)Nc1cccc([N+](=O)[O-])c1 (stereo unspecified),> 100 µM (inactive),> 100 µM (inactive),> 100 µM (inactive),> 100 µM (inactive),> 100 µM (inactive),> 100 µM (inactive),–,> 100 µM (inactive),> 100 µM (inactive),–,> 100 µM (inactive),> 100 µM (inactive),> 100 µM (inactive),> 100 µM (inactive),> 100 µM (inactive),> 100 µM (inactive),–,> 100 µM (inactive),> 100 µM (inactive),> 100 µM (inactive)
[N-]=[N+]=Nc1ccc2c(c1)Sc1ccccc1N2CCCCN1CCN(Cc2ccc(C(=O)c3ccc(CSCC(N)C(=O)O)cc3)cc2)CC1 (stereo unspecified),–,14.3 µM (inactive),52.8 µM (inactive),6.55 µM (inactive),23.9 µM (inactive),14 µM (inactive),–,13.5 µM (inactive),–,1.59 µM (inactive),15.3 µM (inactive),> 10 µM (inactive),13.2 µM (inactive),12.5 µM (inactive),19.3 µM (inactive),–,–,22.8 µM (inactive),46.7 µM (inactive),18.5 µM (inactive)
O=C(O)C1SCCS1,> 100 µM (inactive),> 100 µM (inactive),> 100 µM (inactive),> 100 µM (inactive),> 100 µM (inactive),> 100 µM (inactive),–,> 100 µM (inactive),> 100 µM (inactive),> 100 µM (inactive),> 100 µM (inactive),> 100 µM (inactive),> 100 µM (inactive),–,–,> 100 µM (inactive),> 100 µM (inactive),> 100 µM (inactive),–,> 100 µM (inactive)
